“And” between values parts separate entries of the source, which are not always exact repeats. Equal entries are not always repeated. Toxic doses and inconclusive results are not listed.
Tested on: CD2F1 mice, L1210 leukemia ip, survival T/C
Experiment: NCI In Vivo Anticancer Drug Screen. Data for tumor model L1210 Leukemia (intraperitoneal) in CD2F1 (CDF1) mice
Conditions: higher = longer survival
Method in brief: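 Compound-dosed mice with transplantable tumor versus matched vehicle controls; endpoint ratio T/C reported.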

[1] = endpoint: mean survival time, dose: 100.0 mg/kg/injection, schedule: Q04DX003 (ip), vehicle: saline with Tween-80
[2] = endpoint: mean survival time, dose: 200.0 mg/kg/injection, schedule: Q04DX003 (ip), vehicle: saline with Tween-80
[3] = endpoint: mean survival time, dose: 100.0 mg/kg/injection, schedule: Q01DX009 (ip), vehicle: saline with Tween-80
[4] = endpoint: mean survival time, dose: 200.0 mg/kg/injection, schedule: Q01DX009 (ip), vehicle: saline with Tween-80
[5] = endpoint: mean survival time, dose: 400.0 mg/kg/injection, schedule: Q01DX009 (ip), vehicle: saline with Tween-80
[6] = endpoint: mean survival time, dose: 400.0 mg/kg/injection, schedule: Q04DX003 (ip), vehicle: saline with Tween-80
[7] = endpoint: mean survival time, dose: 25.0 mg/kg/injection, schedule: Q01DX009 (ip), vehicle: saline with Tween-80
[8] = endpoint: mean survival time, dose: 100.0 mg/kg/injection, schedule: Q01DX001 (ip), vehicle: saline with Tween-80
[9] = endpoint: mean survival time, dose: 200.0 mg/kg/injection, schedule: Q01DX001 (ip), vehicle: saline with Tween-80
[10] = endpoint: median survival time, dose: 50.0 mg/kg/injection, schedule: Q04DX003 (ip), vehicle: saline
[11] = endpoint: mean survival time, dose: 50.0 mg/kg/injection, schedule: Q01DX009 (ip), vehicle: Klucel (hydroxypropylcellulose) (HPC)
[12] = endpoint: mean survival time, dose: 100.0 mg/kg/injection, schedule: Q01DX009 (ip), vehicle: Klucel (hydroxypropylcellulose) (HPC)
[13] = endpoint: mean survival time, dose: 200.0 mg/kg/injection, schedule: Q01DX009 (ip), vehicle: Klucel (hydroxypropylcellulose) (HPC)
[14] = endpoint: mean survival time, dose: 100.0 mg/kg/injection, schedule: Q04DX003 (ip), vehicle: saline
[15] = endpoint: mean survival time, dose: 200.0 mg/kg/injection, schedule: Q04DX003 (ip), vehicle: saline
[16] = endpoint: mean survival time, dose: 50.0 mg/kg/injection, schedule: Q01DX009 (ip), vehicle: saline with Tween-80

## CO[C@@]12[C@H](COC(N)=O)C3=C(C(=O)C(C)=C(N)C3=O)N1C[C@H]1[C@@H]2N1C(=O)[C@@H]1N2C(=O)[C@@H](NC(=O)Cc3ccccc3)[C@H]2SC1(C)C
endpoint: mean survival time, dose: 25.0 mg/kg/injection, schedule: Q01DX001 (ip), vehicle: carboxymethylcellulose (CMC)
  T/C: 109 % of control
endpoint: mean survival time, dose: 25.0 mg/kg/injection, schedule: Q01DX007 (ip), vehicle: carboxymethylcellulose (CMC)
  T/C: 120 % of control
endpoint: mean survival time, dose: 25.0 mg/kg/injection, schedule: Q01DX007 (oral), vehicle: carboxymethylcellulose (CMC)
  T/C: 100 % of control
endpoint: mean survival time, dose: 50.0 mg/kg/injection, schedule: Q01DX001 (ip), vehicle: carboxymethylcellulose (CMC)
  T/C: 113 % of control
endpoint: mean survival time, dose: 50.0 mg/kg/injection, schedule: Q01DX007 (ip), vehicle: carboxymethylcellulose (CMC)
  T/C: 116 % of control
endpoint: mean survival time, dose: 50.0 mg/kg/injection, schedule: Q01DX007 (oral), vehicle: carboxymethylcellulose (CMC)
  T/C: 96 % of control
endpoint: mean survival time, dose: 100.0 mg/kg/injection, schedule: Q01DX001 (ip), vehicle: carboxymethylcellulose (CMC)
  T/C: 111 % of control
endpoint: mean survival time, dose: 200.0 mg/kg/injection, schedule: Q01DX001 (ip), vehicle: carboxymethylcellulose (CMC)
  T/C: 111 % of control
endpoint: mean survival time, dose: 400.0 mg/kg/injection, schedule: Q01DX001 (ip), vehicle: carboxymethylcellulose (CMC)
  T/C: 111 % of control

## O=C1C=CC(=O)N1c1cc(Cl)ccc1Cl
[1]
  T/C: 93 % of control
[2]
  T/C: 93 % of control

## CCOC(=O)/C(C#N)=C1\CCc2cc(OC)ccc21
[3]
  T/C: 92 % of control
[1]
  T/C: 103 % of control
[4]
  T/C: 93 % of control
[2]
  T/C: 92 % of control
[5]
  T/C: 92 % of control
[6]
  T/C: 98 % of control

## Nc1ccc(C(OC(=O)c2cc3ccccc3c(Cc3c(O)c(C(=O)OC(c4ccc(N)cc4)(c4ccc(N)cc4)c4ccc(N)cc4)cc4ccccc34)c2O)(c2ccc(N)cc2)c2ccc(N)cc2)cc1
endpoint: mean survival time, dose: 0.78 mg/kg/injection, schedule: Q01DX009 (ip), vehicle: saline with Tween-80
  T/C: 100 % of control and 111 % of control
endpoint: mean survival time, dose: 1.56 mg/kg/injection, schedule: Q01DX009 (ip), vehicle: saline with Tween-80
  T/C: 123 % of control and 102 % of control
endpoint: mean survival time, dose: 3.12 mg/kg/injection, schedule: Q01DX009 (ip), vehicle: saline with Tween-80
  T/C: 105 % of control
endpoint: mean survival time, dose: 3.13 mg/kg/injection, schedule: Q01DX009 (ip), vehicle: saline with Tween-80
  T/C: 101 % of control
endpoint: mean survival time, dose: 6.25 mg/kg/injection, schedule: Q01DX009 (ip), vehicle: saline with Tween-80
  T/C: 104 % of control and 107 % of control
endpoint: mean survival time, dose: 12.5 mg/kg/injection, schedule: Q01DX009 (ip), vehicle: saline with Tween-80
  T/C: 88 % of control and 110 % of control
[7]
  T/C: 101 % of control

## CCOC(=O)Cc1cnc(SC)nc1Nc1ccc(Br)cc1
[8]
  T/C: 89 % of control
[9]
  T/C: 89 % of control
endpoint: mean survival time, dose: 400.0 mg/kg/injection, schedule: Q01DX001 (ip), vehicle: saline with Tween-80
  T/C: 100 % of control

## Cn1c(C(O)c2cccnc2)c(CN2CCCCC2)c2ccccc21 (stereo not drawn)
[8]
  T/C: 97 % of control
[9]
  T/C: 94 % of control

## O=C1c2ccccc2C(=O)c2c1ccc(O)c2O
[3]
  T/C: 97 % of control
[1]
  T/C: 102 % of control
[4]
  T/C: 97 % of control
[2]
  T/C: 100 % of control
[5]
  T/C: 90 % of control
[6]
  T/C: 100 % of control

## CCO/C=C1\SC(=S)N(c2ccccc2C)C1=O
[3]
  T/C: 106 % of control and 111 % of control
[1]
  T/C: 103 % of control
[4]
  T/C: 103 % of control and 106 % of control
[2]
  T/C: 108 % of control
[5]
  T/C: 88 % of control
[6]
  T/C: 113 % of control

## CCCCN(CCCC)P1(=O)OCCO1
endpoint: mean survival time, dose: 100.0 mg/kg/injection, schedule: Q04DX002 (ip), vehicle: saline
  T/C: 103 % of control
endpoint: mean survival time, dose: 200.0 mg/kg/injection, schedule: Q04DX002 (ip), vehicle: saline
  T/C: 107 % of control
endpoint: mean survival time, dose: 400.0 mg/kg/injection, schedule: Q04DX002 (ip), vehicle: saline
  T/C: 98 % of control

## CCCNC(=O)C1C2CCC(CC2)C1C(=O)NCCC (stereo not drawn)
[1]
  T/C: 98 % of control
[2]
  T/C: 98 % of control
[6]
  T/C: 95 % of control

## CS(C)=O.[Cl-].[Cl-].[NH-]CC(O)C[N-]CC(O)CN.[Pt+4] (stereo not drawn)
endpoint: median survival time, dose: 10.0 mg/kg/injection, schedule: Q04DX003 (ip), vehicle: saline
  T/C: 97 % of control
endpoint: median survival time, dose: 20.0 mg/kg/injection, schedule: Q04DX003 (ip), vehicle: saline
  T/C: 111 % of control
endpoint: median survival time, dose: 40.0 mg/kg/injection, schedule: Q04DX003 (ip), vehicle: saline
  T/C: 108 % of control
[10]
  T/C: 94 % of control
endpoint: median survival time, dose: 80.0 mg/kg/injection, schedule: Q04DX003 (ip), vehicle: saline
  T/C: 98 % of control

## O=c1cc(C(F)(F)F)[nH]c2ccc(F)cc12
endpoint: mean survival time, dose: 5.0 mg/kg/injection, schedule: Q01DX009 (ip), vehicle: saline with Tween-80
  T/C: 101 % of control
endpoint: mean survival time, dose: 10.0 mg/kg/injection, schedule: Q01DX009 (ip), vehicle: saline with Tween-80
  T/C: 100 % of control
endpoint: mean survival time, dose: 20.0 mg/kg/injection, schedule: Q01DX009 (ip), vehicle: saline with Tween-80
  T/C: 96 % of control

## CC1(CCCc2ccc(N(CCCl)CCCl)cc2)NC(=O)NC1=O (stereo not drawn)
[11]
  T/C: 114 % of control
[12]
  T/C: 93 % of control
[13]
  T/C: 86 % of control

## S=c1[nH]nc2n1NC(c1ccoc1)=NN2
endpoint: mean survival time, dose: 25.0 mg/kg/injection, schedule: Q04DX003 (ip), vehicle: saline with Tween-80
  T/C: 96 % of control
endpoint: mean survival time, dose: 50.0 mg/kg/injection, schedule: Q04DX003 (ip), vehicle: saline with Tween-80
  T/C: 100 % of control
[1]
  T/C: 90 % of control and 93 % of control
[2]
  T/C: 107 % of control

## CCOC(=O)C(C)C(=O)NCc1ccccc1 (stereo not drawn)
endpoint: mean survival time, dose: 25.0 mg/kg/injection, schedule: Q01DX009 (ip), vehicle: Klucel (hydroxypropylcellulose) (HPC)
  T/C: 95 % of control
[11]
  T/C: 96 % of control
[12]
  T/C: 96 % of control
[13]
  T/C: 93 % of control
endpoint: mean survival time, dose: 400.0 mg/kg/injection, schedule: Q01DX009 (ip), vehicle: Klucel (hydroxypropylcellulose) (HPC)
  T/C: 98 % of control

## O=Cc1cc(=O)n2c3c(cccc13)CCC2
[14]
  T/C: 98 % of control
[15]
  T/C: 98 % of control

## CNC1(C(=O)c2ccccc2)CC2CCC1C2 (stereo not drawn)
endpoint: mean survival time, dose: 100.0 mg/kg/injection, schedule: Q01DX001 (ip), vehicle: saline
  T/C: 95 % of control
endpoint: mean survival time, dose: 200.0 mg/kg/injection, schedule: Q01DX001 (ip), vehicle: saline
  T/C: 96 % of control
endpoint: mean survival time, dose: 400.0 mg/kg/injection, schedule: Q01DX001 (ip), vehicle: saline
  T/C: 98 % of control

## Nc1nc(Cl)ncc1C1OC(CO)C(O)C1O (stereo not drawn)
endpoint: mean survival time, dose: 12.5 mg/kg/injection, schedule: Q01DX005 (ip), vehicle: water
  T/C: 91 % of control
endpoint: mean survival time, dose: 25.0 mg/kg/injection, schedule: Q01DX005 (ip), vehicle: water
  T/C: 95 % of control
endpoint: mean survival time, dose: 50.0 mg/kg/injection, schedule: Q01DX005 (ip), vehicle: water
  T/C: 91 % of control
endpoint: mean survival time, dose: 100.0 mg/kg/injection, schedule: Q01DX005 (ip), vehicle: water
  T/C: 87 % of control
endpoint: mean survival time, dose: 200.0 mg/kg/injection, schedule: Q01DX005 (ip), vehicle: water
  T/C: 98 % of control

## CC(C)=CCO
[14]
  T/C: 105 % of control
[15]
  T/C: 94 % of control
endpoint: mean survival time, dose: 400.0 mg/kg/injection, schedule: Q04DX003 (ip), vehicle: saline
  T/C: 94 % of control

## NC1CCCCC1N.O=S(=O)([O-])c1ccccc1S(=O)(=O)[O-].[Pt+4]
endpoint: median survival time, dose: 1.56 mg/kg/injection, schedule: Q04DX003 (ip), vehicle: saline
  T/C: 105 % of control
endpoint: median survival time, dose: 6.25 mg/kg/injection, schedule: Q04DX003 (ip), vehicle: saline
  T/C: 212 % of control and 216 % of control
endpoint: median survival time, dose: 12.5 mg/kg/injection, schedule: Q04DX003 (ip), vehicle: saline
  T/C: 212 % of control and 361 % of control
endpoint: median survival time, dose: 25.0 mg/kg/injection, schedule: Q04DX003 (ip), vehicle: saline
  T/C: 244 % of control and 375 % of control
[10]
  T/C: 180 % of control

## CCOC(=O)Nc1nccs1
[7]
  T/C: 98 % of control
[16]
  T/C: 100 % of control
[3]
  T/C: 98 % of control
endpoint: mean survival time, dose: 100.0 mg/kg/injection, schedule: Q04DX003 (ip), vehicle: Klucel (hydroxypropylcellulose) (HPC)
  T/C: 101 % of control
endpoint: mean survival time, dose: 200.0 mg/kg/injection, schedule: Q04DX003 (ip), vehicle: Klucel (hydroxypropylcellulose) (HPC)
  T/C: 97 % of control

## O=C(O)CCCCCCCCC(=O)O (tested in a mixture with another compound)
[16]
  T/C: 100 % of control
[3]
  T/C: 100 % of control
[4]
  T/C: 102 % of control
